# Laboratory results from patent publication US20030086872A1, “SUT-2 and SUT-3 genes, proteins and assays for inhibitors of lymphocyte adhesion” (priority 2001, published 2003).
# “Also recorded” adds a separate entry of the source.
# Key:
# selectins = conditions: cited from earlier work
# SUT-3 = target: T1, SUT-3 (Homo sapiens, UniProt Q86WA9); experiment: Sulfate uptake by Sf9 insect cells infected with baculovirus expressing SUT-3; assay type: cell-based; conditions: 1 mM DIDS; uptake of 500 μM Na2SO4; Sf9 cells infected at MOI of 5
# T1 construct: The full length SLC26A11 ORF was PCR amplified from IMAGE clone; expressed in transfected cells; host or cells: Sf9 insect cells infected with recombinant baculovirus (pVL1393-SUT-3, polyhedrin promoter)
# T1 sequence (Q86WA9 1-606): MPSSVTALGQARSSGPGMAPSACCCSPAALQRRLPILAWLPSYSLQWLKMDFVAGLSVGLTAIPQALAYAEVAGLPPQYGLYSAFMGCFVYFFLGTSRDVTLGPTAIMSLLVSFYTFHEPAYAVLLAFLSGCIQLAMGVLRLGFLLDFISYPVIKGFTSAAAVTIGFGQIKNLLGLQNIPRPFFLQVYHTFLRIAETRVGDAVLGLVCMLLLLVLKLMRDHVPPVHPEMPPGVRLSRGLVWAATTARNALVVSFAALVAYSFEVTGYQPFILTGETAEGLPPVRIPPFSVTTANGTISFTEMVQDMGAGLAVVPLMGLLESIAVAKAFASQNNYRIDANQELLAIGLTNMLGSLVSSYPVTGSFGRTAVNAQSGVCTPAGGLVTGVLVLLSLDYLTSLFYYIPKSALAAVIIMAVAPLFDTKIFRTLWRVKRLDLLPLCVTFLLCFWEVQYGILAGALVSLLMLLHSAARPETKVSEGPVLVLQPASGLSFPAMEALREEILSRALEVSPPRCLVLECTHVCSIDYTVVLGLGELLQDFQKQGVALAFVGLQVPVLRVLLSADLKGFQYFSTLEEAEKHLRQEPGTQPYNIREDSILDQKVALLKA
# Experimental: The full length SLC26A11 ORF was PCR amplified from IMAGE clone N^o 4793646, with 10 pmol of primers ATG-SUT-3 (5′-[…]) (SEQ ID NO: 21) and STOP-SUT-3 (5′-[…]-3′)(SEQ ID NO: 22), using 3 units of Pfu (Promega) in its reaction buffer with 400 μM dNTP. PCR cycles were 30×(94° C., 1′, 60° C., 1′, 72° C., 4′). The PCR product was then phosphorylated at its 5′ extremities using 2 units of T4 Polynucleotide Kinase (PROMEGA). 2 μg of pVL1393 vector (BD Biosciences) were digested with 10 units of EcoRI and NotI endonucleases, extremities were blunt-ended with 10 units of T4 DNA polymerase (PROMEGA) and 5′ extremities were dephosphated with 1 unit of Calf Intestine Phosphatase (Boehringer). 100 ng of purified insert and vector were then ligated together using 1 unit of T4 DNA Ligase (Biolabs). All enzymes were used according to supplier's instructions. After restriction analysis, DNA sequencing was performed using the Big Dye Sequencing Kit (Perkin Elmer) according to manufacturer's protocol. […]
# For all experiments, 80 cm^2 flasks containing 60% confluent Sf9 cells were infected at a MOI of 5 and incubated for 3 days at 27° C. for protein expression. […] Protein concentration was evaluated using the BIO-RAD protein Assay Kit according to the manufacturer's protocol and cell-associated radioactivity was determined in a Tri-Carb 2100 liquid scintillation counter (Packard). […]
# NaSi-1 = target: T2, NaSi-1 (Rattus norvegicus, UniProt Q07782); conditions: rat kidney and small intestine; cited from earlier work
# T2 sequence (Q07782 1-595): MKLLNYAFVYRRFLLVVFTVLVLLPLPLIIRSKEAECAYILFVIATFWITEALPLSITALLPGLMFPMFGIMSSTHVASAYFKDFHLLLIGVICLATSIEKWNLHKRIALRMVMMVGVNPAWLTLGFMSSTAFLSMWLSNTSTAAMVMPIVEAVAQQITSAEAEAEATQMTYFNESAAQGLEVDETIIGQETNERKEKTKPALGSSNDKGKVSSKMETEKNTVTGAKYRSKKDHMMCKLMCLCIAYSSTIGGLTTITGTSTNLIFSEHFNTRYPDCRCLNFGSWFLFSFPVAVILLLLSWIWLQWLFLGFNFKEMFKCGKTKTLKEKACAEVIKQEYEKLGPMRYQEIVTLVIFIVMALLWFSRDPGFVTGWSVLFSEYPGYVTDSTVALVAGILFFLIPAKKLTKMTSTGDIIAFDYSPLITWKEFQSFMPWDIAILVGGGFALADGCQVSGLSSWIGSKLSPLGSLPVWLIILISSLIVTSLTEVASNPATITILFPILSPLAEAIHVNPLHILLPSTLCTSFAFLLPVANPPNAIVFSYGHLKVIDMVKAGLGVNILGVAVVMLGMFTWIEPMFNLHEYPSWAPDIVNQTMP
# SAT-1 = target: T3, SAT-1 (Rattus norvegicus, UniProt P45380); conditions: rat hepatocytes; cited from earlier work
# T3 sequence (P45380 1-703): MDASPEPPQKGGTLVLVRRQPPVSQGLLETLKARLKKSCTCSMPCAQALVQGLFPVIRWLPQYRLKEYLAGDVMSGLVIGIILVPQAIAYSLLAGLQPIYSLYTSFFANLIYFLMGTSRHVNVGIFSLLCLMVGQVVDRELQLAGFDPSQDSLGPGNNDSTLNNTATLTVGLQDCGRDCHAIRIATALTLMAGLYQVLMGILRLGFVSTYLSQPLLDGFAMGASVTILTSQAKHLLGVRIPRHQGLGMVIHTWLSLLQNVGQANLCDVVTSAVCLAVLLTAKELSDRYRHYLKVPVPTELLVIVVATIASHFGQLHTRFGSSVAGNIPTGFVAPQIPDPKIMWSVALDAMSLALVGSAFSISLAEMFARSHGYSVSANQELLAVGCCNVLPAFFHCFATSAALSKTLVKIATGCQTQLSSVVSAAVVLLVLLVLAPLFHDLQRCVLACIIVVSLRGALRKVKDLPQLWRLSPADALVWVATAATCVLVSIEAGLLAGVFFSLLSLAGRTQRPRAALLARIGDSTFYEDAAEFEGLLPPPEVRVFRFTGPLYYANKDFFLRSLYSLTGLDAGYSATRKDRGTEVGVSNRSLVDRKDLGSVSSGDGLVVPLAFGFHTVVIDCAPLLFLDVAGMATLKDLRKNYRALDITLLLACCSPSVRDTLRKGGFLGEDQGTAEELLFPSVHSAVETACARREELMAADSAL
# DTD = target: T4, DTD (Homo sapiens, UniProt P50443); conditions: cited from earlier work
# T4 sequence (P50443 1-739): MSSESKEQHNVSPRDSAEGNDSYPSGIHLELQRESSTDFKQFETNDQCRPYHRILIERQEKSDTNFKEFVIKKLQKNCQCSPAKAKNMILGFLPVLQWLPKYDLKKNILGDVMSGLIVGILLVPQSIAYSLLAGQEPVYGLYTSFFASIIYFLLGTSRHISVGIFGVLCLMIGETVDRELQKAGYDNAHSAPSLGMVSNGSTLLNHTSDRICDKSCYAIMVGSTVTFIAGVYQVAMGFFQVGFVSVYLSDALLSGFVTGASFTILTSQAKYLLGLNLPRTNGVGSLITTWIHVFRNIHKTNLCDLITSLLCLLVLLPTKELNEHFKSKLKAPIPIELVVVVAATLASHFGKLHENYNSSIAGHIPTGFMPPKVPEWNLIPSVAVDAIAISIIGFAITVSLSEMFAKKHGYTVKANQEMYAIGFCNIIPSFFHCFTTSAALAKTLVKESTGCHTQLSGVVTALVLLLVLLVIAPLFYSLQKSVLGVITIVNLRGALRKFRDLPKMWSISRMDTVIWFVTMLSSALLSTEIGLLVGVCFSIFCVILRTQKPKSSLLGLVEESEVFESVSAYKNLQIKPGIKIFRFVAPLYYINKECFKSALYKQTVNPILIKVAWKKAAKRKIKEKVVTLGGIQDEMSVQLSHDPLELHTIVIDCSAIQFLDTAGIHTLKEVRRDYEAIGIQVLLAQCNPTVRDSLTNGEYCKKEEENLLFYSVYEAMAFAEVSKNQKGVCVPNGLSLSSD
# DRA = target: T5, DRA (Homo sapiens, UniProt P40879); conditions: cited from earlier work
# T5 sequence (P40879 1-764): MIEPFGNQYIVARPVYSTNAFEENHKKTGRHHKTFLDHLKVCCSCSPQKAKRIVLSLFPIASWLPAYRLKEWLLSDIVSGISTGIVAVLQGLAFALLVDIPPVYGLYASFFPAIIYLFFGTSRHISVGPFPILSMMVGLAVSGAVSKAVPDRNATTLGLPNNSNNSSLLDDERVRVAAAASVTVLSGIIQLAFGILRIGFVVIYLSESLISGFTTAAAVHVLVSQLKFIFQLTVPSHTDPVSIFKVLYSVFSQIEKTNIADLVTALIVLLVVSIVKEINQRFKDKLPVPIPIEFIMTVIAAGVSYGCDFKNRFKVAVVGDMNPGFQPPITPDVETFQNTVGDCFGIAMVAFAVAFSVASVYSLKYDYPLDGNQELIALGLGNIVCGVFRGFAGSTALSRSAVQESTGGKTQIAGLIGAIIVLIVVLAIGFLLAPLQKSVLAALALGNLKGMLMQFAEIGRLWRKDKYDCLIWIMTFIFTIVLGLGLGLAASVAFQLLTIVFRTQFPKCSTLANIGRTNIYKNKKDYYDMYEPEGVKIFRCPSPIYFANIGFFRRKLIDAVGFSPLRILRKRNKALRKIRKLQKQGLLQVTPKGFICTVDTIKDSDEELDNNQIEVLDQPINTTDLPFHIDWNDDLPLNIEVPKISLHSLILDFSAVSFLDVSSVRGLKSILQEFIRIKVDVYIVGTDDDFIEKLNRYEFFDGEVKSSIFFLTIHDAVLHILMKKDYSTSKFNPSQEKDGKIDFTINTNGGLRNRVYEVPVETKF
# SUT-1 = target: T6, SUT-1 (Homo sapiens, UniProt Q9UKG4); conditions: cited from earlier work
# T6 sequence (Q9UKG4 1-626): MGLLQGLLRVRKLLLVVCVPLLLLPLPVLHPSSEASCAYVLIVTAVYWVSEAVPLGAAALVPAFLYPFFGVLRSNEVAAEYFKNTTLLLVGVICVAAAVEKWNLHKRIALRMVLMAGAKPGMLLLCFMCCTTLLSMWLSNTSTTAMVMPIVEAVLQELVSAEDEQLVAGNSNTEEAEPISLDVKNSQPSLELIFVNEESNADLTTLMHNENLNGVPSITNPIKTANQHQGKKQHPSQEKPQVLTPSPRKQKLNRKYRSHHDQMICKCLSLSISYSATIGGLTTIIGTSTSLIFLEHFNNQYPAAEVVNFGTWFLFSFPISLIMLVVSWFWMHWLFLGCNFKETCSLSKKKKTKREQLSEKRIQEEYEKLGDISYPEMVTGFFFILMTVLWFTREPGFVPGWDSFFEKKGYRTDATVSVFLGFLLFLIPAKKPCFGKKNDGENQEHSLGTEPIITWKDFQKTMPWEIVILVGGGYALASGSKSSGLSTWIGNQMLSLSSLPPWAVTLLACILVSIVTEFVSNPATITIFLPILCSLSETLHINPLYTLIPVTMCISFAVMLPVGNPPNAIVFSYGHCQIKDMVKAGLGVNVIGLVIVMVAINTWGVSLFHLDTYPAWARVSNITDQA
Structure (SMILES),endothelial expression of selectins (selectins),inhibition of SUT-3-mediated sulfate uptake (SUT-3),sensitivity of NaSi-1 sulfate transport to DIDS (NaSi-1),sensitivity of SAT-1 sulfate transport to DIDS (SAT-1),sensitivity of DTD to DIDS (DTD),sensitivity of DRA to DIDS (DRA),sensitivity of SUT-1 sulfate transport to DIDS (SUT-1)
COc1cc2c(c(OC)c1OC)-c1ccc(OC)c(=O)cc1[C@@H](NC(C)=O)CC2 [colchicine],downregulate,,,,,,
"O=S(=O)(O)c1cc(N=C=S)ccc1C=Cc1ccc(N=C=S)cc1S(=O)(=O)O [DIDS, 4,4′-diisothiocyanostilbene-2,2′-disulfonic acid]",,sensitive; also recorded: efficiently inhibited,resistant,sensitive,sensitive,sensitive,resistant
